Source: patent US20240358693A1, “METHODS OF TREATING PAIN” (Aisa Pharma, Inc., priority 2023, published 2024)

Test system: participants with SSc-RP
Experiment: Scleroderma Health Assessment Questionnaire (SHAQ): disability indices and visual analog scales
Type: in vivo, human
Conditions: for SHAQ Standard Disability Index: Baseline, Mean / SHAQ Standard Disability Index: Baseline, Median / SHAQ Standard Disability Index: Change from Baseline (Day 12), Mean / SHAQ Standard Disability Index: Change from Baseline (Day 12), Median / SHAQ Standard Disability Index: In-Clinic Visit (Day 12), Mean / SHAQ Standard Disability Index: In-Clinic Visit (Day 12), Median / SHAQ Standard Disability Index: Percent Change from Baseline (Day 12), Mean / SHAQ Standard Disability Index: Percent Change from Baseline (Day 12), Median: PP Population, Part A, sensitivity analysis
Description: The standard, validated, patient reported outcome measures tool for SSc patients, the Scleroderma Health Assessment Questionnaire (SHAQ), will be used to assess the participant qualify of life. Details are attached in the Appendix. The participant quality of life will be scored, and a disability index calculated for each questionnaire completed by the patient at Screening and each in-clinic visit. The absolute change in participant quality of life from baseline to the end of each dosing period will be calculated similar to frequency data as before.
The SHAQ includes a Raynaud's VAS, which will be reported at screening and each in-clinic visit. The absolute change in Raynaud-VAS, assessed by the participants response to the SHAQ question ‘In the past 7 days, how much have your Raynaud's interfered with your daily activities?’ at baseline and the end of each dosing period will be calculated similar to frequency data as before.
The SHAQ is used to calculate a Disability Index to assess the participant qualify of life. The eight categories assessed by the Disability Index are 1) dressing and grooming, 2) arising, 3) eating, 4) walking, 5) hygiene, 6) reach, 7) grip, and 8) common daily activities. For each of these categories, patients report the amount of difficulty they have in performing two or three specific activities.
There are four possible responses for the Disability Index questions: • Without any difficulty=0 • With some difficulty=1 • With much difficulty=2 • Unable to do=3. • The highest score reported by the patient for any component question of the eight categories determines the score for that category. • If a component question is left blank or the response is too ambiguous to assign a score, then the score for that category is determined by the remaining completed question(s). • If all component questions are blank or if more than one answer is given, then follow up with the respondent is required. • If the respondent's mark is between the response columns, then move it to the closest one. If it's directly between the two, move it to the higher one.
Each of the disability items on the SHAQ has a companion aids/devices variable that is used to record what type(s) of assistance, if any, the participant uses for his/her usual activities. These variables (see below) are coded as follows: • 0=No assistance is needed. • 1=A special device is used by the patient in his/her usual activities. • 2=The patient usually needs help from another person. • 3=The patient usually needs BOTH a special device AND help from another person.
The scoring variables and scoring rules permit the computation of two disability indices, the Standard Disability Index and the Alternative Disability Index.
This question results in a new set of category scores that are computed by adjusting the score for each category, if necessary, based on the patient's use of an aid or device or assistance for that category. If either devices and/or help from another person are checked for a category, the score is set to “2”, unless the score is already “3” (i.e., scores of “0” or “1” are increased to “2”). For example, if the highest score for the dressing category is “1”, and the patient says they use a device for dressing, the computed category score would be “2”. The sum of the computed categories scores is then calculated and divided by the number of categories answered. This gives a score in the 0 to 3 range.
The aid and device variables are not used to calculate the alternative disability index; it is calculated by adding the scores for each of the categories and dividing by the number of categories answered. This gives a score in the 0 to 3 range.
The standard, validated, patient reported outcome measures tool for SSc patients, the SHAQ, was collected at the time points specified in the study schedules (FIG. 2 and FIGS. 4A and 4B) to assess the participant's quality of life. The SHAQ included a Raynaud's VAS that will also be reported separately.

[1] = Table C9, Pooled Cilnidipine 10 mg and Cilnidipine 10 mg + Tadalafil 5 mg
[2] = Table C9, Pooled Cilnidipine 20 mg and Cilnidipine 20 mg + Tadalafil 5 mg
[3] = Table C9, pooled cilnidipine 10 mg and 20 mg arms (plus tadalafil 5 mg where labelled)
[4] = Table C10, Pooled Cilnidipine 10 mg and Cilnidipine 10 mg + Tadalafil 5 mg
[5] = Table C10, Pooled Cilnidipine 20 mg and Cilnidipine 20 mg + Tadalafil 5 mg
[6] = Table C10, pooled cilnidipine 10 mg and 20 mg arms (plus tadalafil 5 mg where labelled)

## COCCOC(=O)C1=C(C)NC(C)=C(C(=O)OC/C=C/c2ccccc2)C1c1cccc([N+](=O)[O-])c1 (centres unmarked) [Cilnidipine, cilnidipine]
Pooled cilnidipine (4)
  SHAQ % Δ from baseline, VAS Finger Ulcers, median: −50.9%
  SHAQ % Δ from baseline, alternative disability, mean: −12.9%
  SHAQ % Δ from baseline, alternative disability, median: −22.2%
  SHAQ % Δ from baseline, standard disability, mean: −25%
  SHAQ % Δ from baseline, standard disability, median: −16.7%
Pooled cilnidipine (5)
  SHAQ % Δ from baseline, Intestinal Problems, mean: −32.4%
  SHAQ % Δ from baseline, Intestinal Problems, median: −44.1%
Pooled cilnidipine (6)
  SHAQ % Δ from baseline, VAS Overall Disease Severity, mean: −59.8%
  SHAQ % Δ from baseline, VAS Overall Disease Severity, median: −55.9%
  SHAQ % Δ from baseline, VAS Pain, mean: −31.2%
  SHAQ % Δ from baseline, VAS Pain, median: −45%
  SHAQ % Δ from baseline, VAS Raynaud's, mean: −18.6%
  SHAQ % Δ from baseline, VAS Raynaud's, median: −38.7%
[1]
  SHAQ Standard Disability Index: Baseline, Mean: 0.597
  SHAQ Standard Disability Index: Baseline, Median: 0.500
  SHAQ Standard Disability Index: Change from Baseline (Day 12), Mean: −0.021
  SHAQ Standard Disability Index: Change from Baseline (Day 12), Median: 0.000
  SHAQ Standard Disability Index: In-Clinic Visit (Day 12), Mean: 0.576
  SHAQ Standard Disability Index: In-Clinic Visit (Day 12), Median: 0.375
  SHAQ Standard Disability Index: Percent Change from Baseline (Day 12), Mean: 7.50%
  SHAQ Standard Disability Index: Percent Change from Baseline (Day 12), Median: 0.00%
[2]
  SHAQ Standard Disability Index: Baseline, Mean: 0.563
  SHAQ Standard Disability Index: Baseline, Median: 0.375
  SHAQ Standard Disability Index: Change from Baseline (Day 12), Mean: −0.065
  SHAQ Standard Disability Index: Change from Baseline (Day 12), Median: 0.000
  SHAQ Standard Disability Index: In-Clinic Visit (Day 12), Mean: 0.498
  SHAQ Standard Disability Index: In-Clinic Visit (Day 12), Median: 0.250
  SHAQ Standard Disability Index: Percent Change from Baseline (Day 12), Mean: −1.66%
  SHAQ Standard Disability Index: Percent Change from Baseline (Day 12), Median: −12.82%
[3]
  SHAQ Standard Disability Index: Baseline, Mean: 0.500
  SHAQ Standard Disability Index: Baseline, Median: 0.375
  SHAQ Standard Disability Index: Change from Baseline (Day 12), Mean: −0.031
  SHAQ Standard Disability Index: Change from Baseline (Day 12), Median: 0.000
  SHAQ Standard Disability Index: In-Clinic Visit (Day 12), Mean: 0.469
  SHAQ Standard Disability Index: In-Clinic Visit (Day 12), Median: 0.188
  SHAQ Standard Disability Index: Percent Change from Baseline (Day 12), Mean: −16.00%
  SHAQ Standard Disability Index: Percent Change from Baseline (Day 12), Median: 0.00%
[4]
  SHAQ Standard Disability Index: Baseline, Mean: 0.597
  SHAQ Standard Disability Index: Baseline, Median: 0.500
  SHAQ Standard Disability Index: Change from Baseline (Day 12), Mean: −0.021
  SHAQ Standard Disability Index: Change from Baseline (Day 12), Median: 0.000
  SHAQ Standard Disability Index: In-Clinic Visit (Day 12), Mean: 0.576
  SHAQ Standard Disability Index: In-Clinic Visit (Day 12), Median: 0.375
  SHAQ Standard Disability Index: Percent Change from Baseline (Day 12), Mean: 7.50%
  SHAQ Standard Disability Index: Percent Change from Baseline (Day 12), Median: 0.00%
[5]
  SHAQ Standard Disability Index: Baseline, Mean: 0.563
  SHAQ Standard Disability Index: Baseline, Median: 0.375
  SHAQ Standard Disability Index: Change from Baseline (Day 12), Mean: −0.065
  SHAQ Standard Disability Index: Change from Baseline (Day 12), Median: 0.000
  SHAQ Standard Disability Index: In-Clinic Visit (Day 12), Mean: 0.498
  SHAQ Standard Disability Index: In-Clinic Visit (Day 12), Median: 0.250
  SHAQ Standard Disability Index: Percent Change from Baseline (Day 12), Mean: −1.66%
  SHAQ Standard Disability Index: Percent Change from Baseline (Day 12), Median: −12.82%
[6]
  SHAQ Standard Disability Index: Baseline, Mean: 0.500
  SHAQ Standard Disability Index: Baseline, Median: 0.375
  SHAQ Standard Disability Index: Change from Baseline (Day 12), Mean: −0.031
  SHAQ Standard Disability Index: Change from Baseline (Day 12), Median: 0.000
  SHAQ Standard Disability Index: In-Clinic Visit (Day 12), Mean: 0.469
  SHAQ Standard Disability Index: In-Clinic Visit (Day 12), Median: 0.188
  SHAQ Standard Disability Index: Percent Change from Baseline (Day 12), Mean: −16.00%
  SHAQ Standard Disability Index: Percent Change from Baseline (Day 12), Median: 0.00%
Pooled cilnidipine patients, 10 mg or 20 mg (n=7)
  mean decrease in patient reported disease severity on the SHAQ: 60%
